Results: publication PMC5928083, “Structural basis for energy transduction by respiratory alternative complex III” (Nature Communications, 2018)

Molecular target: T1, ACIII (alternative complex III) (Rhodothermus marinus, UniProt D0MDD6)
T1 construct: gene Rmar_0223; native multi-subunit membrane complex purified from R. marinus membranes in DDM; ActB Tat signal peptide (74 residues) absent; one further unidentified subunit; with Quinol:cytochrome c oxidoreductase pentaheme cytochrome subunit (alternative complex III subunit ActA); Quinol:cytochrome c oxidoreductase iron-sulfur protein (alternative complex III subunit ActB); Quinol:cytochrome c oxidoreductase membrane protein (alternative complex III subunit ActD); Quinol:cytochrome c oxidoreductase monoheme cytochrome subunit (alternative complex III subunit ActE); Alternative complex III subunit ActG; Hypothetical protein Rmar_1979 (ActH)
Test: isothermal titration calorimetry
Assay type: binding
Conditions: read-out: log Ka (converted)

## CC1=C(C)C(=O)c2ccccc2C1=O [2,3-dimethyl-1,4-naphthoquinone]
  Kd: 316 nM
